Key:
[1] = Compressibility: tableting, hardness and tensile strength; format: physicochemical; settings: die with a diameter of 6 mm; for Tensile strength Ts: Ts = 2F/IIDL; for Tensile strength Ts / Hardness: hydrochloride; for Hardness: same pressure; for Experimental phenomena: tableting
Protocol: In this experiment, a die with a diameter of 6 mm was used. The drug substance and the drug substance + excipient were tableted under the same pressure, respectively. After the elasticity of the prepared tablets was restored, the radial crushing force F, diameter D, and thickness L of the tablets were measured. The tensile strength of the tablets was calculated according to the following formula: Ts = 2F/IIDL.

[2] = Equilibrium solubility in organic solvents at room temperature (HPLC, XRPD of solids); format: physicochemical; settings: 24 hours of equilibrium; for solubility at 24 h: organic solvent or mixture, thermodynamic from solid; for Solubility: hydrochloride
Protocol: After 24 hours of equilibrium, the saturated solutions were obtained by filtration. The contents of the samples in the saturated solutions were determined by high-performance liquid chromatography (HPLC) (the filtered solutions were diluted as needed), and the crystal forms of the solids before and after the experiment were characterized by XRPD to check whether phase changes occurred.

| Structure (SMILES) | Tensile strength Ts [1] | Hardness [1] | Experimental phenomena [1] | solubility at 24 h ([2]; acetone) | solubility at 24 h ([2]; ethanol) | solubility at 24 h ([2]; ethyl acetate) | Solubility ([2]; Acetone) | Solubility ([2]; Ethanol) | Solubility ([2]; Ethyl acetate) |
| --- | --- | --- | --- | --- | --- | --- | --- | --- | --- |
| CCCc1nc(-c2ccc(-c3ccc(CCC(N)(CO)CO)cc3)cc2)co1.Cl [Crystal form A, 2-amino-2-{2-(4'-(2-propyloxazol-4-yl)-[1,1'-biphenyl]-4-yl)ethyl}-1,3-propanediol hydrochloride] | 0.17 | 5 N | Severe punch sticking | 43 µg/mL | 9990 µg/mL | 11 µg/mL | – | – | – |
| CCCc1nc(-c2ccc(-c3ccc(CCC(N)(CO)CO)cc3)cc2)co1.Cl [Crystal form B, 2-amino-2-{2-(4'-(2-propyloxazol-4-yl)-[1,1'-biphenyl]-4-yl)ethyl}-1,3-propanediol hydrochloride] | 0.10 | 3 N | Severe punch sticking | – | – | – | 32 µg/mL | 7610 µg/mL | Not detected |
